Assay results as given in patent US8367094B2, “Antimicrobial material and method for making the same” (priority 2008, dated 2013).

Experiments:
[1] = test system: P. aeruginosa; details: known in the art; cited from earlier work
[2] = test system: S. aureus; experiment: in vitro agar zone of inhibition (ZOI) test; format: cell-based; details: 24 hours
Protocol: In an experimental procedure, using a commercially-available, medical grade polyurethane (PU) solution (available, for example from ChronoFlex AR, CardioTech International, Inc. of Woburn, Mass.), silver salt(s) is/are manually incorporated into the solution. The silver-loaded ChronoFlex solution is spread onto glass, and dried in a circulating oven at 80 C for 1.5 hours. The loaded PU film was allowed to equilibrate at RT for at least two days, and subsequently demolded. The film was manually cut into circles by means of a cork borer, and placed into serially-labeled Petri dishes. The microbiology technician was blinded regarding which silver salts were incorporated into the film. Two types of silver salts were tested as described generally above: (1) soluble salts for quick release, and (2) an insoluble salt for longevity.
If the test samples show a “zone of inhibition” (“ZOI”) the specimen thus display the capacity to kill the microorganisms tested. The ZOI is measured in mm; the greater the ZOI distance, the more powerful is the microbiocidal effect. Note that, prior to application, the test films were sterilized using short-wave UV at a distance of 2 inches for 10 seconds.
Using a 10 mm sample disc, the microbial growth inhibition was measured from the edge of each sample disc, producing antimicrobial results in accordance with the following Table:

Row | Structure (SMILES) | effectiveness against Gram-negative rods (such as pseudomonas aeruginosa) [1] | microbiocidal activity against S. aureus, in words [2]
1 | [H]/N=C(\N/C(=N/[H])NCCCCCCNC(=N)NC(=N)Nc1ccc(Cl)cc1)Nc1ccc(Cl)cc1 [chlorhexidine] | somewhat ineffective | 
2 | O=C([O-])c1ccccc1.[Ag+] [silver benzoate] |  | totally ineffective
3 | CC(O)C(=O)[O-].[Ag+] (stereo not shown) [silver lactate] |  | totally ineffective
4 | O=C([O-])C(F)(F)F.[Ag+] [silver trifluoroacetate] |  | effective against Gram-positives, but for very short periods of time
